# Experimental data reported in patent publication US10889553B2, “Asymmetric triazole benzamide derivatives and the compositions and methods of treatment regarding the same” (NysnoBio Ireland DAC, priority 2017, dated 2021).
# “And” between values parts separate entries of the source, which are not always exact repeats. Equal values may be shown once.
# What was measured:
# [1] = biological target: T1, Parkin ligase (Homo sapiens, UniProt O60260); experiment: Activity-Based Probe Assay using Ubiquitin vinyl sulfone probe (TR-FRET); assay type: biochemical; settings: heat activated Parkin, HA-Ub-VS probe, activation EC50; read-out: Probe Assay EC50 (μM) [Example 2]
# T1 sequence (O60260 1-465): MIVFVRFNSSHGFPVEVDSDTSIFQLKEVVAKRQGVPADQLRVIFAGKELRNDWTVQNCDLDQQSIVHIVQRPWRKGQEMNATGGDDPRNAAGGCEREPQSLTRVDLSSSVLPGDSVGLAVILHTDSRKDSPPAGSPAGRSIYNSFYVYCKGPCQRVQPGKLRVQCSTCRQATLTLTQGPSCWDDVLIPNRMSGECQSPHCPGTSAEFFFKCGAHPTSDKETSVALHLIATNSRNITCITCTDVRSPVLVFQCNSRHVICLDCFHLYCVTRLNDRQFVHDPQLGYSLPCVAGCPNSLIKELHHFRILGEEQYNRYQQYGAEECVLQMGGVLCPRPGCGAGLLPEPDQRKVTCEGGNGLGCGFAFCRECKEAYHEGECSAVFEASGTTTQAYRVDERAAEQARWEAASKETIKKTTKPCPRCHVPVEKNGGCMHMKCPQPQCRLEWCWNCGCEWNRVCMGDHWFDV
# Procedure: An Ubiquitin vinyl sulfone probe can be used that irreversibly binds to the active site cysteine of Parkin ligase. Covalent attachment of the probe to the Parkin can be monitored by TR-FRET. Candidate activator compounds can be identified by increasing the activity of Parkin ligase due to an increase in TR-FRET signal. Screening for activating compounds can be distinguished from the controls as follows: 100% activation signal=Heat activated Parkin+100 nM control activator in DMSO. 0% activation signal=Heat activated Parkin+DMSO only. Parkin activators can be identified by an increase of the 0% activation signal TR-FRET signal. Assay Conditions: Materials: • Assay Plate: White 384 well plate (Corning 3572) • Enzyme: Parkin-His tagged 203 μM (10.5 mg/ml) • Probe: Ubiquitin vinyl-sulfone (HA-Ub-VS Boston Biochem U-212) • DMSO: DMSO (Sigma cat #D4540-100ML) • Reaction Buffer: 50 mM HEPES (pH 8.5), 150 mM NaCl, 0.01% Tween 20, 0.1% BSA • Detection Buffer: 50 mM HEPES (pH 8.5), 150 mM NaCl, 0.01% Tween 20, 0.1% BSA, 800 mM KF • Detection Reagent A: 2.6 nM Anti-6HIS-Eu cryptate and 40 nM Anti-HA-XL665 in detection buffer • Eu cryptate: Anti-6HIS-Eu cryptate (CisBio 61HISKLA) • XL665: Anti-HA-XL665 (CisBio 610HAXLA) Enzyme Reaction (15 Min Pre Incubation Parkin with Activator Only) • Parkin: 40 nM • HA-Ub-VS Probe: 70 nM • Activator/DMSO: 2× Activator/2% DMSO Reaction time: 60 minutes Temperature: 22° C. Total volume: 10 μl reaction Detection Reaction Take […] of Enzyme Reaction above and add 10 μl detection Reagent A under the following conditions: • Reaction time: 60 minutes • Temperature: 22° C. • Total volume: 20 μl
# Assay procedure (Using HP D-300 compound dispenser and Bravo for the operation):
# 1) Heat activate Parkin in reaction buffer (500 μl/1.5 ml tube: Eppendorf Thermomixer 5 minutes, 400 rpm at 58° C. and put on ice until needed).
# 2) Load assay plate wells with 4.8 μl 84.5 nM Parkin in reaction buffer by use of Bravo.
# 3) Deliver 0.2 μl 200× activator candidates in DMSO by use of HP D-300 compound dispenser. Highest 200× concentration=[…] and then twofold dilutions.
# 4) Spin 1000 rpm, 2 minutes, at room temp.
# 5) Incubate plate for 15 minutes at room temp.
# 6) Add 5 μl 140 nM HA-Ub-VS Probe in reaction buffer by use of Bravo.
# 7) Spin 1000 rpm, 2 minutes, at room temp.
# 8) Incubate plate for 60 minutes at room temp.
# 9) Add 10 μl 2.6 nM Anti-6HIS-Eu cryptate and 40 nM […] in detection buffer.
# 10) Spin 1000 rpm, 2 minutes, at room temp.
# 11) Incubate plate for 60 minutes at room temp.
# 12) Read plates on Perkin Elmer Envision instrument with the following parameters:
# LANCE dual laser protocol loaded into the Envision® software
# Top Mirror: LANCE/DELFIA Duel/Bias (Bar code 446)
# Emission Filter: APC 665 EM (Bar code 205)
# 2nd Emission Filter: Europium 615 EM (Bar code 203)
# Read 655 nm (channel 1) and 615 nm (channel 2) wavelengths on Envision®
# Data Analysis: The Data can be read in CSV files. There are two tables in those CSV files, which are the values of 655 nm (channel 1) and 615 nm (channel 2) wavelengths respectively. The data is converted to an HTRF Ratio=(Channel 1/Channel 2)*10,000
# The average of all the 0 μM controls (DMSO only)=BKGD (Background—0% activation). Subtract BKGD from each HTRF Ratio value=HTRF−BKGD. The average of all the […] 100 nM control activator in DMSO controls=Max (100% activation). The following equation is then used to calculate % Activation for each well/candidate as follows: % Activation=(HTRF−BKGD/Max)*100.
# Graphpad Prism was used with Transform X values: X=Log(X) and nonlinear regression (dose-response-stimulation): Log(agonist) vs Response−variable slope (four parameters) with constrains set to Bottom=0 and Top=100.
# The Activity-Based Probe Assay was performed with various compounds in Tables 1, 2, 3A and 3B.
# [2] = Microsomal stability assay, rat liver microsomes; assay type: in vitro ADME; settings: pH 7.4; rat liver microsomes 1.0 mg/mL, 1 μM compound, NADPH; read-out: RLM t1/2
# Procedure: Compounds were also tested for metabolic stability in both rat liver microsomes (RLM) and the compounds are tested for human liver microsomes (HLM) and their half-life is calculated (See Tables 5A and 5B). The assay was performed as follows. The total volume for each incubation was 250 μL. A 100 μM DMSO solution of compound (diluted from 10 mM stock solution) was spiked into 50 mM KH2PO4 (pH 7.4) buffer containing liver microsome at a concentration of 1.0 mg/mL. The reaction was initiated by the addition of 50 μL of 1 mM NADPH. The final concentration of each compound was 1 μM (1% DMSO). The positive controls, phenacetin for CYP1A2, diclofenac for CYP2C9, omeprazole for CYP2C19, dextromethorphan for CYP2D6 and midazolam for CYP3A4 were added to a separate tube with the final substrate concentrations of 1 μM (1% DMSO) for evaluating the enzyme activities in the liver microsomes. At 0, 15, 30 and 60 min, an aliquot of 15 μL reaction mixtures were removed and 200 μL of methanol (with internal standard of 25 ng/mL propranolol) was added to quench the reaction. The resulting mixture was centrifuged and supernatant was used for LC-MS/MS analysis.
# The signals for each compound, or the metabolites for the probe substrates and the internal standard were integrated and the peak area ratios to internal standard were generated. Percent parent remaining at a specified timepoint was calculated based on the peak area ratios at time 0 (as 100%) for in vitro metabolic stability studies in liver microsome and hepatocyte. The observed rate constant (kobs) for the metabolism of substrates was calculated by plotting the natural log of percentage substrate remaining versus time of incubation with the slope being kobs. The half-life (T1/2) was calculated according to the following equation: T1/2=[…]
# [3] = tested on: TOV-21G (ovarian); experiment: Cancer cell proliferation assay (acid phosphatase); assay type: cell-based; settings: Homo sapiens, TOV21G, 72 h, Table 6A; 72 hrs; read-out: TOV-21G IC50
# Procedure: (§1) Measurement of the inhibitive effect of compounds on cancer cell proliferation was performed. Various cell lines were tested, including HCT-116 (colon); A549 (lung); TOV-21G (ovarian); Calu-6 (lung); and LS-174T (colon); and cell lines H1703 (Lung) and SKOV3 (ovarian); JEKO-1 (lymophoma); TOV-112D (ovarian) are tested. The assays were performed under the following conditions: Cells are harvested at a concentration of 4×10^4 cells/ml in media. Volumes of 100 μl/well of these cell suspensions were added to a 96 well plate using a multichannel pipette. Plates were gently agitated to ensure an even dispersion of cells over a given plate. Cells were then incubated at 37° C., 5% CO2 overnight. Following this, 100 μl of compound at varying concentrations was added to wells in triplicate. Control wells are those with 100 μl media containing 0.33% DMSO added to cell suspension (this is the equivalent volume of DMSO found in the highest concentration of drug). Plates were then gently agitated, as above, and incubated at 37° C., 5% CO2 for 72 hrs (control wells have reached 80-90% confluency). Assessment of cell proliferation in the presence of the compound was determined by the acid phosphatase assay.
# (§2) Following the incubation period of 72 hrs, media was removed from the plates. Each well on the plate was washed twice with 100 μl PBS. This was then removed and 100 μl of freshly prepared phosphatase substrate (10 mM p-nitrophenol phosphate in 0.1M sodium acetate, 0.1% triton X-100, pH 5.5) was added to each well. The plates were then incubated in the dark at 37° C. for 2 hours. Colour development was monitored during this time. The enzymatic reaction was stopped by the addition of 50 μl of 1N NaOH. The plate was read in a dual beam plate reader at 405 nm with a reference wavelength of 620 nm. The absorbance reading of the latter is subtracted from the former, and the effect of the drug on cell proliferation was then measured as a percentage against the control cells (DMSO), which is taken as 0% inhibition.
# [4] = tested on: A549 (lung); experiment: Cancer cell proliferation assay (acid phosphatase); assay type: cell-based; settings: Homo sapiens, A549, 72 h, Table 6A; 72 hrs; read-out: A549 IC50
# Procedure: as §1, §2
# [5] = tested on: HCT-116 (colon); experiment: Cancer cell proliferation assay (acid phosphatase); assay type: cell-based; settings: Homo sapiens, HCT-116, 72 h, Table 6A; 72 hrs; read-out: HCT-116 IC50
# Procedure: as §1, §2
SMILES,EC50 [1],half-life at 1 μM [2],IC50 [3],IC50 [4],IC50 [5]
Cc1ccccc1C(=O)Nc1nc(NC(=O)c2cocn2)n(-c2ccccc2)n1 [Compound 9],32 µM,58 min,,,
Cc1ccccc1C(=O)Nc1nc(NC(=O)c2ncco2)n(-c2ccccc2)n1 [Compound 10],30 µM,27 min,,,
C#Cc1cccc(C(=O)Nc2nc(NC(=O)c3ccc(N=[N+]=[N-])cc3)nn2-c2ccccc2)c1 [Compound 12],1 µM and 3 µM,126 min,,,
Cc1ccccc1C(=O)Nc1nc(NC(=O)c2cccnn2)n(-c2ccccc2)n1 [Compound 13],7 µM,51 min,,,
C#Cc1cccc(C(=O)Nc2nc(NC(=O)c3ccc(N=[N+]=[N-])cc3)n(-c3ccccc3)n2)c1 [Compound 18],1 µM and 3 µM,103 min,,,
Cc1ccccc1C(=O)Nc1nc(NC(=O)c2ncccn2)n(-c2ccccc2)n1 [Compound 28],22 µM,20 min,,,
Cc1ccccc1C(=O)Nc1nc(NC(=O)c2ccccc2C)n(-c2ccc(N3CCC(O)C3)cc2)n1 (stereo not drawn) [Compound 58],7 µM,,2400 nM,2600 nM,
O=C(Nc1nc(NC(=O)c2cccnc2)n(-c2ccc(OC(F)(F)F)cc2)n1)c1cccnc1 [Compound 61],12 µM and 10 µM and 13 µM,,1400 nM,,2100 nM
O=C(Nc1nc(NC(=O)c2cccnc2)n(-c2ccc(C(F)(F)F)cc2)n1)c1cccnc1 [Compound 62],8 µM,,,2000 nM,2700 nM
O=C(Nc1nc(NC(=O)c2ccncc2)n(-c2ccc(OC(F)(F)F)cc2)n1)c1ccncc1 [Compound 65],5 µM,,2500 nM,,2500 nM
Cc1ccccc1C(=O)Nc1nc(-c2cccc(F)n2)nn1-c1ccccc1 [Compound 123],7 µM,84 min,,,
Cc1ccccc1C(=O)Nc1nc(NC(=O)c2c(F)cc(F)cc2F)nn1-c1ccccc1 [Compound 149],,,> 2500 nM,,> 2500 nM
Cc1ccccc1C(=O)Nc1nc(NC(=O)c2ccc(F)cc2F)nn1-c1ccccc1 [Compound 150],,,> 2500 nM,,> 2500 nM
Cc1ccccc1C(=O)Nc1nc(NC(C)(C)c2ccccc2)nn1-c1ccccc1 [Compound 152],,,,,> 2500 nM

# Results, then the compound that gave them:
EC50 [1],half-life at 1 μM [2],IC50 [3],IC50 [4],IC50 [5],SMILES
3 µM,131 min,,,,Cc1ccccc1C(=O)Nc1nc(NC(=O)C2CCN2)nn1-c1ccccc1 (stereo not drawn) [Compound 5]
4 µM,71 min,,,,C#Cc1ccccc1C(=O)Nc1nc(NC(=O)c2cccc(N=[N+]=[N-])c2)n(-c2ccccc2)n1 [Compound 8]
2 µM,147 min,,,,C#Cc1cccc(C(=O)Nc2nc(NC(=O)c3cccc(N=[N+]=[N-])c3)n(-c3ccccc3)n2)c1 [Compound 11]
3 µM,19 min,,,,COc1cccc(C(=O)Nc2nc(NC(=O)c3cccc(OC)c3)n(-c3ccccc3)n2)c1 [Compound 27]
2 µM,47 min,,,,C#Cc1cccc(C(=O)Nc2nc(NC(=O)c3cccc(N=[N+]=[N-])c3)nn2-c2ccccc2)c1 [Compound 29]
3 µM,,,,2500 nM,O=C(Nc1nc(NC(=O)c2ccncc2)n(-c2ccc(C(F)(F)F)cc2)n1)c1ccncc1 [Compound 63]
4 µM,73 min,,,,Cc1ccccc1C(=O)Nc1nc(-c2ccccc2O)nn1-c1ccc(OC(F)(F)F)cc1 [Compound 137]
